Test results reported in patent US11000501B2, “Composition for preventing or treating neurological and mental disorders, containing syringaresinol” (SEOUL NATIONAL UNIVERSITY R&DB FOUNDATION, priority 2016, dated 2021).

Assays:
Assay type in all cases: cell-based, mouse
[1] = system: Ca^2+ channel in CA1 neurons; test: Ca2+ channel current (Ba2+ current) recording in CA1 neurons; settings: 100 μM; depolarization −90 mV to −10 mV, 50 ms
[2] = system: CA1 neurons (inhibitory synaptic transmission); test: Evoked IPSC (eIPSC) recording in CA1 neurons; settings: 100 μM
Excerpt: A stimulating electrode was placed on a radiating layer or a pyramidal cell layer near the target cell. […] […] During eEPSC or eIPSC recording, series resistance and seal resistance were continuously observed using short hyperpolarization pulses (−5 mV, 50 ms). When the resistance was changed by more than 20% during recording, the data was discarded.
SYR […] inhibitory synaptic transmission in CA1 neurons. […] There was no difference between the first eIPSC (t=−0.47, p>0.05) and the second eIPSC (t=−0.33, p>0.05) as measured before and after the application of SYR respectively.

[3] = system: AMPAR-EPSC in CA1 neurons; test: AMPAR-mediated EPSC whole-cell patch clamp in CA1 neurons
Method: (§1) To measure evoked excitatory post-synaptic current (eEPSC), the synapse potential was recorded using a patch pipette (3 to 4Mohm) via the membrane voltage clamp technique. The patch pipette contained a solution containing 100 mM CsMeSO4, 10 mM TEA-Cl, 20 mM CsCl, 8 mM NaCl, 10 mM HEPES, 0.5 mM QX-314-Cl, 4 mM Mg-ATP, 0.3 mM Na-GTP and 10 mM EGTA and having pH 7.25 and 290 mOsm/kg. EPSC was measured at a frequency of 0.05 Hz. The synaptic current was induced using a glass pipette (0.3 to 0.5 Mohm). GABAA receptor (GABAAR) antagonist picrotoxin (50 μM) was added to ACSF.
Thus, it was necessary to check the effect of SYR on desensitization of AMPAR in CA1 neurons. The whole-cell patch clamp technique was used in the presence of NMDAR blocker AP-5 and GABAA receptor blocker picrotoxin (PTX, 50 μM).
To confirm this assumption, we examined the effect of SYR on AMPAR-EPSC by injecting, as the actin-stabilizer, jasplakinolide (2 μM) into the patch pipette solution (FIG. 3H to FIG. 3J).
Furthermore, we checked whether post-synaptic loading of SYR regulates AMPAR-EPSC. We measured AMPAR-EPSC for 25 minutes immediately after cell membrane-punching using a K+-based pipette solution. […] If the post-synaptic loading of SYR affects AMPAR-EPSC, gradual diffusion of SYR from the pipette solution should inhibit AMPAR-EPSC.
Previous studies have shown that the secretion probability is regulated by the size of the readily releasable pool (RRP) of hippocampal neurons. Therefore, RRP was measured before and after treatment with SYR (100 μM). A high-frequency train (20 Hz) composed of more than 60 stimuli was prepared. 80 stimuli at 20 Hz was applied to completely remove RRP from the SC-CA1 synapse. RRP size was measured by cumulative amplitude analysis (Stevens and Williams, 2007; Wesseling and Lo, 2002).

[4] = system: NMDAR-EPSC in CA1 neurons; test: NMDAR-mediated EPSC recording in CA1 neurons; settings: −40 mV; NBQX and picrotoxin present; 100-ms interval
Method: as §1

ERK = test: Western blot of ERK activity (p-ERK/ERK) in hippocampal slices; settings: 100, 300 and 500 μM, 10 minutes treatment
Method: After removing the CA3 region from the hippocampal slice surgically, the slices were recovered in the 36° C. and normal ACSF for 4 hours. Each sample was treated with each drug for 10 minutes, and then frozen using liquefied nitrogen. Western blot analysis of drug-induced changes in ERK activity in the hippocampal slices was performed in a manner as previously described (Song et al., 2017). The slices were homogenized using a probe sonicator in a cold lysis buffer about at a temperature of ice. The lysis buffer contained 50 mM HEPES, 100 mM NaCl, 5 mM EGTA, 5 mM EDTA, 1% Triton X-100, a phosphatase inhibitor mixer (GenDEPOT, TX, USA) and a protease inhibitor mixer (Sigma-Aldrich, MO, USA). The total protein concentration of the homogenate was determined by Bradford protein assay (Bio-Rad, CA, USA). Samples containing 10 to 12 μg of protein were separated using SDS-PAGE gels and transferred to the nitrocellulose membrane. The membrane was sequentially reacted with a primary antibody (p-ERK and ERK; Cell Signaling Technologies, MA, USA) and a secondary antibody (Jackson ImmunoResearch, USA) having horse radish peroxidase (HRP) coupled thereto. HRP signals were detected on an enhanced chemiluminescence (ECL) substrate (GE Healthcare, UK) and then quantified with MetaMorph software (Molecular Devices, CA, USA). […]

[5] = system: CA1 neurons (inhibitory synaptic transmission); test: Miniature IPSC (mIPSC) recording in CA1 neurons
Method: A miniature EPSC (mEPSC) was measured at −70 mV with a pipette solution. In this connection, the pipette solution contained 110 mM K-gluconate, 20 mM KCl, 8 mM NaCl, 10 mM HEPES, 0.5 mM QX-314-C1, 4 mM Mg-ATP, 0.3 mM Na-GTP and 0.5 mM EGTA. The solution had pH 7.25 and 290 mOsm/kg. Voluntary action potentials and IPSCs were blocked by TTX (1 μM) and picrotoxin (50 μM), respectively. For mIPSC recording, the K-gluconate in the pipette solution was replaced with the KCl having the same number of moles as the K-gluconate.
The effect of SYR on the miniature IPSC (mIPSC) was checked.

COc1cc(C2OCC3C(c4cc(OC)c(O)c(OC)c4)OCC23)cc(OC)c1O (stereo not shown) [SYR, syringaresinol]
Ba^2+ current mediated by the Ca^2+ channel [1]: rapidly reduced | ratio of IPSC amplitude induced by paired-pulse stimulation (PPR) ([2]; 100 ms interval): did not change | eIPSC amplitude (first and second) ([2]; in presence of NBQX and AP-5): had no effect on eIPSC | AMPAR-EPSC ([3]; 100 μM, AP-5 and picrotoxin present): inhibited | excitatory post-synaptic current (EPSC) amplitude ([3]; fixed potential of −70 mV, AP-5 and picrotoxin 50 μM present): significantly reduced | time constant of EPSC reduction (decay) ([3]; −70 mV): did not affect | NMDAR-EPSC induced by paired-pulse stimulation [4]: significantly inhibited | ERK activity (ERK): did not affect ERK activity | amplitude of mIPSC [5]: did not affect | frequency of mIPSC [5]: did not affect
